Results on two compounds are retold here after US20250041266A1, “S1P MODULATOR IMMEDIATE RELEASE DOSAGE REGIMEN” (Novartis AG, priority 2014, published 2025).

The target in one data set is T1, cloned human S1P5 (Homo sapiens, UniProt Q9H228).
T1 construct: expressed in transfected cells
The data set is described as follows: In-vitro affinity, EC50 for cloned human S1P5. The class given is biochemical.

The next data set deals with T2, cloned human S1P1 (Homo sapiens, UniProt P21453).
T2 construct: expressed in transfected cells
The data set is described as follows: In-vitro affinity, EC50 for cloned human S1P1. Format: biochemical.

The nature of data set [1]: Clinical study in SPMS: cardiac monitoring at treatment initiation. The class given is in vivo, patients with Secondary Progressive Multiple Sclerosis. The source says: This is a randomized, multicenter, double-blind, placebo-controlled parallel-group study in approximately 1530 patients with SPMS. Patients are randomized (2:1) to receive either BAF312 or placebo.
The Double-blind treatment epoch starts at randomization. Patients are randomly assigned to either siponimod or placebo. Randomized patients begin with a six-day dose titration Patients are monitored during the dose titration period. During the dose titration, all patients are expected to complete a study visit on the first day of dosing and on day 7. Patients have a study visit on Day 28 and then continue on a visit schedule every 3 months. The treatment duration for individual patients is variable (likely ranging from approximately 23 to 42 months) based on when the study-stop criteria are met.
All patients start the treatment with a 5-day dose titration pack (0.25 mg, 0.25 mg, 0.5 mg, 0.75 mg, 1.25 mg) continuing to a 2 mg siponimod/placebo dose.
Sitting heart rate and blood pressure should be measured in triplicate before the first dose of BAF312, then hourly for 6 hours thereafter (by the Independent First Dose Administrator). When obtaining the pre-dose heart rate before the first dose, the patient should be allowed to sit and rest for 5 minutes before taking the sitting heart rate. Triplicate repeat sitting heart rate and blood pressure will then be made at 1-2 minute intervals. The sitting heart rate and blood pressure measurements should be taken as a baseline reading for both heart rate and blood pressure (before the first dose of BAF312). For comparison to the post-dose heart rate values, the lowest pre-dose value of heart rate should be used. Patients should receive the first dose of BAF312 before 12:00 PM (noon) in the outpatient setting. • 1. In house (clinical/office/hospital) cardiac monitoring, of at least 6 hours, on Day 1 (treatment initiation): • Heart rate and blood pressure will be monitored in triplicate every hour for 6 hours. • 12-lead ECG will be done before dosing, then at 3 hours post-dose and 6 hours post dose • Patients will only be discharged if they meet the following discharge criteria: • Heart rate must be at least 50 bpm or maximally 10 bpm lower than the baseline value • Heart rate must not be the lowest value measured during the observation period • Patients must have no symptoms related to decreased heart rate • ECG at 6 hours should not show any new significant treatment-emergent ECG abnormalities, other than sinus bradycardia, not observed at the patient's pre-dose ECG. • 2. If the discharge criteria are not met at the 6-hour time point, monitoring beyond 6 hours will be performed until the discharge criteria are met. • 3. Patients experiencing a clinically relevant treatment-related symptomatic event (e.g. chest pain, dizziness, palpitations, syncope, nausea and vomiting, etc) associated with reduction of the heart rate together with ECG changes at any time during the 6 hour monitoring period should be discontinued from treatment. • 4. Patients experiencing a symptomatic event, (e.g. chest pain, dizziness, palpitations, syncope, nausea and vomiting) not associated with reduction of the heart rate and without ECG changes, which occur at any time during the 6-hour monitoring period may be discharged, provided they meet the discharge criteria, but must return on Day 2 for the second dose and will be re-monitored as on Day 1. • 5. Mobile heart rate monitoring with telemetry, or a device with similar (or better) registration capability, will be used for continuous registration of heart rate and cardiac events, minimally 6 h post-dose, for Expanded Cardiac Monitoring patients during their outpatient phase of the BAF312 titration period. If MCT is not possible, Patient will be required to wear a Holter on Screening, Day 1 and Day 4 for 24 hours and for 6 hours on Day 7. The patients who will wear a Holter will need make the study visits to have the Holter machine attached. • 6. On Day 4: • a. […]

Another data set concerns the target S1P1 (Homo sapiens, UniProt P21453). Description: EC50 for S1P1. The conditions noted are these: as quoted in Example 3.1. The class given is biochemical.
The target in a further data set is S1P5 (Homo sapiens, UniProt Q9H228). Description: EC50 for S1P5. The class given is biochemical. The conditions noted are these: as quoted in Example 3.1.
The conditions of data set [2]: administration of 10 mg of siponimod; cited from earlier work.
The test system of data set [3] is PLP139-151 induced experimental autoimmune encephalomyelitis (EAE) in SJL/J mice. Description: Relapse and progression in PLP139-151 induced EAE. Format: in vivo. The conditions noted are these: 3 mg/kg p.o. daily, started three days after first clinical symptoms; FIG. 2. The protocol: Female SJL/J mice were immunized with 50 μg PLP139-151 in CFA, followed by one injection of 200 ng Pertussis toxin, i.p.. Three days after the first clinical symptoms, the mice were randomized to either vehicle or BAF312 and treated daily with 3 mg/kg BAF312 p.o..

Setting [4] is: blinded data (siponimod or placebo).
Setting [5] is: blinded data (siponimod or placebo), AE data for 775 patients.

T1 sequence (Q9H228 whole entry): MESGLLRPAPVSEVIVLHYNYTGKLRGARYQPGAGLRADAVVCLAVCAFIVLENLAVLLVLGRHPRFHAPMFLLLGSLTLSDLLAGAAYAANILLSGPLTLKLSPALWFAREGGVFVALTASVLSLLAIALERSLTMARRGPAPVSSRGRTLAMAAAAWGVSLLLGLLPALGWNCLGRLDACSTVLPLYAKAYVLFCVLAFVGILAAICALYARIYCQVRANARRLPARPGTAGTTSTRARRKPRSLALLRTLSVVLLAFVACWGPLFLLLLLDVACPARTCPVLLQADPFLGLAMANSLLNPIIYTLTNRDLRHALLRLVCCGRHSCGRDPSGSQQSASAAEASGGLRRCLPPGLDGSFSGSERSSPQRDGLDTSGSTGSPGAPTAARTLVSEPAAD
T2 sequence (P21453 whole entry): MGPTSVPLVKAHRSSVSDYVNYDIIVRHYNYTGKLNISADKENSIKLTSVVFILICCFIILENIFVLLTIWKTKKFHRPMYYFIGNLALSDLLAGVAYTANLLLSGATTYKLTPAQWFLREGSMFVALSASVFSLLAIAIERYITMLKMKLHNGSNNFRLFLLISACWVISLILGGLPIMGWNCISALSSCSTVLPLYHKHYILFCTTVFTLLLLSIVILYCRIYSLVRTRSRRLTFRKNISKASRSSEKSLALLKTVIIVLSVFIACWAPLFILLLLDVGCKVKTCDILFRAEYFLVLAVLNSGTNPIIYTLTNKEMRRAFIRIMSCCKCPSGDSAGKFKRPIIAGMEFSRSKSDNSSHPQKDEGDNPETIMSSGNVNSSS
S1P5, sequence (Q9H228 whole entry, species assumed): as the sequence (Q9H228 whole entry) above
S1P1, sequence (P21453 whole entry, species assumed): as the sequence (P21453 whole entry) above

For the compound `CCc1cc(/C(C)=N/OCc2ccc(C3CCCCC3)c(I)c2)ccc1CN1CC(C(=O)O)C1` [compound A, (E)-1-(4-(1-(((4-cyclohexyl-3-iodobenzyl)oxy)imino)ethyl)-2-ethylbenzyl)azetidine-3-carboxylic acid], the EC50 (usually the concentration needed to bring the measured effect to its halfway point) at cloned human S1P5 worked out at 1.35 nM; at cloned human S1P1, 2.2 nM.
Regarding `CCc1cc(/C(C)=N/OCc2ccc(C3CCCCC3)c(C(F)(F)F)c2)ccc1CN1CC(C(=O)O)C1` [siponimod, 1-{4-[1-((E)-4-cyclohexyl-3-trifluoromethyl-benzyloxyimino)-ethyl]-2-ethyl-benzyl}-azetidine-3-carboxylic acid], the “12-lead ECG: cases of 2nd degree AV block” value in data set [1] (blinded data (siponimod or placebo 2:1), 5-day titration then 2 mg, post-dose ECG, 691 patients) is given as “no cases”. Further, in data set [1] (setting [4]), the “cases of 2.1 or Mobitz II AV blocks or high degree AV blocks” value is listed as “No cases”, the “cases of symptomatic 2nd degree AV blocks” value is “No cases” and the symptomatic bradyarrhythmia events result is “No symptomatic bradyarrhythmia events”. In addition, in data set [1] (blinded data (siponimod or placebo), Day 1, expanded monitoring group, 651 patients), the “Holter: patients with AV block 2nd degree Mobitz I night-time episode <3 sec” value is 1 patient. Also, the “MCT: patients with AV block 2nd degree Mobitz I” value in data set [1] (blinded data (siponimod or placebo), on Days 3 and 4, MCT or Holter post-dose, 651 patients) is reported as 2 patients. Also, in data set [1] (setting [5]), the “AE AV block 2nd degree” value is 2 (0.3%) patients (%), the AE bradycardia was 17 (2.2%) patients (%), the AE sinus bradycardia is 8 (1.0%) patients (%) and the “Cardiac disorders AEs reported” value was 54 (7%) patients (%). The “SAE of asymptomatic 2nd degree AV block Mobitz I” value in data set [1] (blinded data, patient with pre-existing AV block 1st degree receiving carbamazepine, SAE data for 862 patients) was 1 SAE. For the same compound, the EC50 at S1P1 worked out at 0.4 nM. The EC50 at cloned human S1P5 turned out to be 0.79 nM. Moreover, the EC50 on S1P5 is 1 nM. In addition, the “decrease in heart rate” value in data set [2] is given as “approximately 10 beats/min”. For the same compound, in data set [3], the “occurrence of relapses (relapse onset)” value is on record as “strongly inhibited”; the “occurrence of subsequent progression (EAE score and body weight)” value is listed as “strongly inhibited”. On cloned human S1P1, this compound registered an EC50 of 0.9 nM.
